This note sets out measurements from article PMC8869655, “Identification of the Kinase-Substrate Recognition Interface between MYPT1 and Rho-Kinase” (Biomolecules, 2022).

Test [1] has as its target T1, GST-Rho-kinase-cat-L (bovine, residues 6–553) (Bos taurus, UniProt Q28021).
T1 construct: GST-Rho-kinase-cat-L (bovine, residues 6–553); made in house; host or cells: Sf9 cells (baculovirus)
Kind of test: In vitro kinase assay, Rho-kinase-cat-L activity. It is filed as biochemical. Conditions: for IC50 / Inhibition of Rho-kinase-cat-L activity (in words): S6 rsk substrate peptide as substrate, 50 μM γ-[32P]ATP, 30 °C, scintillation counting, N = 3; for IC50: 10–20 min, cation-exchange membrane; for Inhibition of Rho-kinase-cat-L activity (in words): inhibitor at the indicated concentrations. As to the method: The kinase reactions were performed in 50 μL of a reaction mixture (25 mM Tris-HCl, pH 7.5, 1 mM EDTA, 1 mM EGTA, 1 mM DTT, 5 mM MgCl2, and 50 μM γ-[^32P]ATP [1–20 GBq/mmol]), GST-Rho-kinase-cat-L or other kinases (1–10 nM), and substrates for 10–20 min at 30 °C. The reaction mixtures were applied to cation-exchange membranes and washed with 75 mM phosphoric acid three times, which was followed by scintillation counting.
Figure 4 Direct inhibition of Rho-kinase activity in vitro. (A) In vitro phosphorylation of S6 rsk substrate peptide by Rho-kinase. GST-Rho-kinase-cat-L or GST-ROCK1-cat-L activity was examined using the S6 rsk substrate peptide as a substrate in the presence of γ-[^32P]ATP. GST-MYPT1-684–868 aa-WT or -4A was added at the indicated concentrations. The reaction mixtures were applied onto cation-exchange membranes, followed by scintillation counting. N = 3. (B) Effects of the deletion of DMs on the inhibition of Rho-kinase activity in vitro. GST-Rho-kinase-cat-L activity was examined using the S6 rsk substrate peptide as a substrate in the presence of γ-[^32P]ATP. GST-MYPT1-684–868-4A with or without DMs was added at the indicated concentrations. The reaction mixtures were applied onto cation-exchange membranes, followed by scintillation counting. N = 3. The deletion of DM1 or DM2 moderately weakened the inhibitory effect and the deletion of both DM1 and DM2 completely abrogated the inhibitory effects of the MYPT1 fragment on the Rho-kinase activity. (C) Sequences of the DMs and phosphorylation sites of MYPT1. The sequences of MYPT1 683–715 aa and 836-860 aa and synthetic peptides are shown. Basic (blue), acidic (red), and aliphatic (green) amino acids within DMs are indicated. Phosphorylation sites are replaced by Ala in pseudosubstrate (PS) peptides. (D) Inhibition of Rho-kinase activity by PS2 + DM2 synthetic peptide. GST-Rho-kinase-cat-L activity was examined using the S6 rsk substrate peptide as a substrate in the presence of γ-[^32P]ATP. Synthetic peptides were added at the indicated concentrations. The reaction mixtures were applied onto cation-exchange membranes, followed by scintillation counting. N = 3. (E) Inhibition of Rho-kinase activity by PS1 + DM3 synthetic peptide. GST-Rho-kinase-cat-L activity was examined using the S6 rsk substrate peptide as a substrate in the presence of γ-[^32P]ATP. Synthetic peptides were added at the indicated concentrations. The reaction mixtures were applied onto cation-exchange membranes, followed by scintillation counting. N = 3.

Test [2] concerns the target T1, GST-Rho-kinase-cat-L (bovine, residues 6–553). Description: In vitro kinase assay, Rho-kinase-cat-L activity. Particulars: synthetic peptide at the indicated concentrations, Figure S4, N=3. The test is classed as biochemical.
The test system of another test is NIH3T3 cells. Description: Actin stress fiber formation in NIH3T3 cells. It is filed as cell-based. Conditions: GST-MYPT1 fragment expressed in NIH3T3 cells, 24 h, phalloidin staining, N = 4. The protocol:
NIH3T3 cells were seeded on polylysine-coated 13-mm coverslips at a density of 4 × 10^4 cells/well in a 6-well dish and cultured in DMEM with 10% calf serum overnight. The cells were transfected with plasmid using LIPOFECTAMINE LTX reagent (Thermo Fisher Scientific, Waltham, MA, USA), according to the manufacture’s protocol. After 24 h, the cells were incubated in fresh DMEM containing 10% calf serum for 20 min, fixed with 3.7% formaldehyde in PBS for 10 min and then treated with PBS containing 0.2% Triton X-100 for 10 min. The fixed cells were blocked with 1% bovine serum albumin for 30 min and stained with the indicated antibodies. Cover slips were mounted with Fluoromount (Diagnostic Biosystems, Pleasanton, CA, USA) and the fluorescence was examined using a confocal laser scanning microscope LSM 780 and LSM5 PASCAL built around an Axio Observer Z1 or Axiovert 200M under the control of LSM software (Carl Zeiss, Oberkochen, Germany). Images were processed using ImageJ or Photoshop (Adobe, San Jose, CA, USA).
Figure 3 Inhibition of MYPT1 phosphorylation by the Rho-kinase-binding fragment of MYPT1. (A,B) Effect of the overexpression of Rho-kinase-binding MYPT1 fragments on GFP-MYPT1 phosphorylation in COS7 cells. Full-length GFP-MYPT1 and the GST-MYPT1 Rho-kinase binding fragment were transiently expressed in COS7 cells. The cell lysates were analyzed by immunoblot analysis using anti-MYPT1-pT855 (top panel), anti-GFP (middle), or anti-GST (bottom) antibodies. The phospho-GFP-MYPT1 levels were quantified and normalized by GFP-MYPT1 levels. Data represent means ± SD. **, p < 0.01, ***, p < 0.001 as compared with the control. (C) Effect of the overexpression of Rho-kinase-binding MYPT1 fragments on stress fiber formation in NIH3T3 cells. GST-MYPT1 fragments were expressed in NIH3T3 cells. The cells were fixed in formaldehyde, and immunostained with phalloidin and anti-GST antibody. […] The percentages of cells with stress fibers throughout the cell (SF(++)), cells with stress fibers partly in the cell (SF(+)), and cells without stress fibers (SF(–)) were analyzed. […]

Test [3] deals with phosphorylation of GFP-MYPT1 at Thr855 in COS7 cells. Kind of test: Phosphorylation of GFP-MYPT1 in COS7 cells. It is filed as cell-based. Conditions: GST-MYPT1 fragment coexpressed with full-length GFP-MYPT1 in COS7 cells, 24 h, immunoblot anti-MYPT1-pT855 normalized by GFP-MYPT1. As to the method:
COS7 cells were seeded on a 6-well dish at a density of 1.8 × 10^5 cells/well in DMEM with 10% fetal bovine serum and cultured overnight. The cells were transfected with plasmids using LIPOFECTAMINE 2000^TM reagent, according to the manufacture’s protocol. After 24 h, the cells were washed twice with PBS, lysed in SDS–PAGE sample buffer and, subjected to immunoblot analysis using the indicated antibodies. The signals were visualized using HRP-conjugated secondary antibody and ECL prime detecting reagent (Cytiva, Marlborough, MA, USA) by X-lay film or imaging analyzer LAS 4010 (Cytiva, Marlborough, MA, USA). Signal intensities of phospho-GFP-MYPT1 and GFP-MYPT1 were analyzed using Fiji software and quantified from standard curves. The phospho-GFP-MYPT1 levels were normalized by GFP-MYPT1 levels.
Figure 3 Inhibition of MYPT1 phosphorylation by the Rho-kinase-binding fragment of MYPT1. […] The cell lysates were analyzed by immunoblot analysis using anti-MYPT1-pT855 (top panel), anti-GFP (middle), or anti-GST (bottom) antibodies. The phospho-GFP-MYPT1 levels were quantified and normalized by GFP-MYPT1 levels. […] The percentages of cells with stress fibers throughout the cell (SF(++)), cells with stress fibers partly in the cell (SF(+)), and cells without stress fibers (SF(–)) were analyzed. […]
(In general: In western blotting, separated proteins are transferred to a membrane and probed.)

For test [4], the target named is GFP-Rho-kinase-cat-L (6–553 aa, long form of catalytic fragment) (bovine).

Residues, ends and D or L forms follow the SMILES beside them. No end group written: not given here.

T1 sequence (Q28021 6-553): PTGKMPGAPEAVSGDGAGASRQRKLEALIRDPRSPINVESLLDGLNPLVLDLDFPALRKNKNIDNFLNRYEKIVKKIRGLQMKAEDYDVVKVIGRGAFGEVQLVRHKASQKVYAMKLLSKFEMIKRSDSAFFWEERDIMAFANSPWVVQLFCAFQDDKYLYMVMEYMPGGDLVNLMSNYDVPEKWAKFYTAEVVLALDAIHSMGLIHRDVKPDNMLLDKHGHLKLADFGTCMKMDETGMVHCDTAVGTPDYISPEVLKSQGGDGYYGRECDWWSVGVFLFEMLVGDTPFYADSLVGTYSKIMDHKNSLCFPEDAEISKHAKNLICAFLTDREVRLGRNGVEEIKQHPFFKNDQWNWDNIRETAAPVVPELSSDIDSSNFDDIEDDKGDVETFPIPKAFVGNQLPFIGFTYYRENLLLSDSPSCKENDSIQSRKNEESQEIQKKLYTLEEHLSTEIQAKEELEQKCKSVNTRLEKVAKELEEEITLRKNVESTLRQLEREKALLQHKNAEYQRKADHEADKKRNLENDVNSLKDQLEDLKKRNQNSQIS

Usually IC50 stands for the concentration that gives 50% inhibition. A high value points to lower potency. For the molecule `CC[C@H](C)[C@H](NC(=O)[C@H](CO)NC(=O)[C@H](CCCCN)NC(=O)[C@@H]1CCCN1C(=O)[C@H](CCC(N)=O)NC(=O)[C@H](CO)NC(=O)[C@@H](N)CCCCN)C(=O)N[C@@H](CCCNC(=N)N)C(=O)N[C@@H](CCC(=O)O)C(=O)N[C@@H](CCCNC(=N)N)C(=O)N[C@@H](CCCNC(=N)N)C(=O)N[C@@H](CCCNC(=N)N)C(=O)N1CCC[C@H]1C(=O)N[C@@H](CCCNC(=N)N)C(=O)N[C@@H](CCC(=O)O)C(=O)N[C@@H](CCCCN)C(=O)N[C@@H](CCCNC(=N)N)C(=O)N[C@@H](CCCNC(=N)N)C(=O)N[C@@H](C)C(=O)N[C@@H](C)C(=O)NCC(=O)N[C@H](C(=O)N[C@@H](CO)C(=O)N[C@@H](Cc1ccccc1)C(=O)N[C@@H](Cc1c[nH]c2ccccc12)C(=O)O)C(C)C` [PS2 + DM2] (H-KSQPKSIRERRRPREKRRAAGVSFW-OH; N-terminus and C-terminus assumed), in test [1], the concentration for half-maximal inhibition (IC50) is less than 1000 nM and the “Inhibition of Rho-kinase-cat-L activity (in words)” value is reported as “strongly inhibited”. Further, the “Inhibition of phosphorylation of MLC by Rho-kinase” value in test [2] (substrate GST-MLC (1 µM)) was “inhibited”. In test [2] (substrate GST-MYPT1-684-868 aa (0.5 µM)), the “Inhibition of phosphorylation of MYPT1 by Rho-kinase” value is reported as “inhibited”. Further, the “Inhibition of phosphorylation of Scrib by Rho-kinase” value in test [2] (substrate GST-Scrib-C (1235-1630 aa) (1 µM)) is recorded as “inhibited”.
On to “QSRRAAQGVTLTDLQEAEKTIGRS [PS1 + DM1, synthetic peptide, MYPT1 692–715 aa, pseudosubstrate 1 plus docking motif 1]”, for which the “Inhibition of Rho-kinase activity at higher concentration (in words)” value in test [1] (100 μM peptide, data not shown) is “mild inhibitory effect”. The “Inhibition of Rho-kinase-cat-L activity (in words)” value in test [1] is given as “did not show an inhibitory effect”.
With `CC(C)C[C@H](NC(=O)[C@@H](NC(=O)[C@@H](NC(=O)CNC(=O)[C@H](CCC(N)=O)NC(=O)[C@H](C)NC(=O)[C@H](C)NC(=O)[C@H](CCCNC(=N)N)NC(=O)[C@H](CCCNC(=N)N)NC(=O)[C@H](CO)NC(=O)[C@H](CCC(N)=O)NC(=O)[C@H](CCCNC(=N)N)NC(=O)[C@H](C)NC(=O)[C@H](CCC(N)=O)NC(=O)[C@H](CCCNC(=N)N)NC(=O)[C@H](CO)NC(=O)[C@H](CCCNC(=N)N)NC(=O)[C@H](C)NC(=O)[C@H](CCCCN)NC(=O)[C@@H](N)CCCNC(=N)N)C(C)C)[C@@H](C)O)C(=O)N[C@H](C(=O)O)[C@@H](C)O` [PS1 + DM3] (H-RKARSRQARQSRRAAQGVTLT-OH; N-terminus and C-terminus assumed), in test [1], the half-maximal inhibitory concentration (IC50) is less than 1000 nM and the “Inhibition of Rho-kinase-cat-L activity (in words)” value is given as “inhibited Rho-kinase activity to a similar extent as PS2 + DM2”.
As for “KSQPKSIRERRRPR [DM2, synthetic peptide, MYPT1 836–849 aa, docking motif 2]”, the “Inhibition of Rho-kinase-cat-L activity (in words)” value in test [1] is listed as “moderately inhibited”.

B1: MYPT1-684–868 aa: GST-fused rat MYPT1 fragment 684–868 aa containing DMs and four phosphorylation sites (protein)
chain: KARSRQARQSRRSTQGVTLTDLQEAEKTIGRSRSTRTREQENEEKDKEEKEKQDKEKQEEKKESEVSREDEYKQKYSRTYDETYARYRPVSTSSSSTPSSSSLSTLGSSLYASSQLNRPNSLVGITSAYSRGLTKDNEREGEKKEEEKEGEDKSQPKSIRERRRPREKRRSTGVSFWTQDSDENE
modifications: left off: GST, end not stated, kept
notes: GST-fused rat MYPT1 fragment 684–868 aa containing DMs and four phosphorylation sites
As for B1, the “Effect on actin stress fiber formation” value with NIH3T3 cells is listed as “reduced actin stress fibers”. Also, the “Effect on phosphorylation of GFP-MYPT1 at Thr855” value in test [3] was “strongly inhibited”. In test [1], the “Inhibition of Rho-kinase-cat-L activity (in words)” value was “inhibited the Rho-kinase-cat-L activity in a dose-dependent manner”.
In test [4], RKARSRQARQSRRAAQGVTLT (not fully specified) [PS1 + DM3 synthetic peptide (MYPT1 683–703 aa)] returned an IC50 of inhibition of the in vitro kinase activity of GST-Rho-kinase-cat-L on the S6 rsk substrate peptide (Figure 4E) of less than 1000 nM.

B2: MYPT1-655-715 aa: GST-fused MYPT1 fragment 655–715 aa (protein, UniProt Q10728 655-715, looked up, fragment)
chain: GTLSSTSEVRERRRSYLTPVRDEESESQRKARSRQARQSRRSTQGVTLTDLQEAEKTIGRS
modifications: also: GST fusion
notes: GST-fused MYPT1 fragment 655–715 aa
Regarding B2, in the test with NIH3T3 cells, the “Effect on actin stress fiber formation” value is “rather enhanced stress fiber formation”. In addition, the “Effect on phosphorylation of GFP-MYPT1 at Thr855” value in test [3] was “decreased the phosphorylation of MYPT1”.
KSQPKSIRERRRPREKRRAAGVSFW (not fully specified) [PS2 + DM2 synthetic peptide (MYPT1 836–860 aa)] registered an IC50 of inhibition of the in vitro kinase activity of GST-Rho-kinase-cat-L on the S6 rsk substrate peptide (Figure 4D) in test [4] of less than 1000 nM.
